According to ChEMBL document CHEMBL3352620, “Development of potent antagonists for formyl peptide receptor 1 based on Boc-Phe-D-Leu-Phe-D-Leu-Phe-OH” (Bioorg Med Chem, 2014):
Calls of active or inactive are those of the source. No cut-off for these calls is given here. Square brackets hold non-standard residues; d marks the D form. Peptide text beside a SMILES is read from it. * marks the point of attachment. Boc = CC(C)(C)OC(=O)*

Experiments:
fMet-Leu-Phe receptor [1] = biological target: T1, fMet-Leu-Phe receptor (Homo sapiens, UniProt P21462); assay: Antagonist activity at formyl peptide receptor in human HL60 cells assessed as inhibition of intracellular calcium mobilization incubated for 5 mins prior to fMLP challenge by Fura-2 method; format: functional, cell-based, HL-60
T1 sequence (P21462 whole entry): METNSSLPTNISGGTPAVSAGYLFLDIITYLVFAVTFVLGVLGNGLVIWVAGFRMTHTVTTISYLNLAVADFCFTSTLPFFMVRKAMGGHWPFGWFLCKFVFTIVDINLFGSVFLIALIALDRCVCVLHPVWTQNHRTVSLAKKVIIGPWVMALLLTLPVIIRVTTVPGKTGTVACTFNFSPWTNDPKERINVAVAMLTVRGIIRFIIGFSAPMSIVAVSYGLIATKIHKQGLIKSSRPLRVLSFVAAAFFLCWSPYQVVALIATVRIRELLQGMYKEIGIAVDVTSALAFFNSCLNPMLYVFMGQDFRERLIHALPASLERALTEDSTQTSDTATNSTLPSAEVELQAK

[2] = biological target: T2, fMet-Leu-Phe receptor (Homo sapiens) (UniProt P21462); assay: Antagonist activity at formyl peptide receptor in human HL60 cells assessed as fMLP EC50 at 1 uM incubated for 5 mins prior to fMLP challenge by Fura-2 method; format: cell-based; conditions: HL-60
T2 sequence (whole entry): T1 sequence (P21462 whole entry)

[3] = biological target: T2, fMet-Leu-Phe receptor (Homo sapiens); assay: Agonist activity at formyl peptide receptor in human HL60 cells at 10 uM by Fura-2 method; format: cell-based; conditions: HL-60
[4] = biological target: T2, fMet-Leu-Phe receptor (Homo sapiens); assay: Antagonist activity at formyl peptide receptor in human HL60 cells assessed as inhibition of MMK1-induced calcium mobilization at 1 to 10 uM incubated for 5 mins prior to MMk1 challenge by Fura-2 method; format: functional, cell-based; conditions: HL-60
fMet-Leu-Phe receptor [5] = biological target: T1, fMet-Leu-Phe receptor; assay: Antagonist activity at formyl peptide receptor in human HL60 cells assessed as inhibition of fMLP-induced calcium mobilization incubated for 5 mins prior to fMLP challenge by Fura-2 method

| SMILES | Kd (fMet-Leu-Phe receptor [1]) [nM] | also measured |
| --- | --- | --- |
| CC(C)C[C@@H](NC(=O)[C@H](Cc1ccccc1)NC(=O)OC(C)(C)C)C(=O)N[C@H](C(=O)N[C@H](CC(C)C)C(=O)N[C@@H](Cc1ccccc1)C(=O)O)[C@@H](C)OC(C)(C)C | 830 |  |
| CC(C)C[C@@H](NC(=O)[C@H](Cc1ccccc1)NC(=O)[C@@H](CC(C)C)NC(=O)[C@H](Cc1ccccc1)NC(=O)OC(C)(C)C)C(=O)N[C@@H](Cc1ccc(OC(C)(C)C)cc1)C(=O)O | 68 |  |
| CC(C)C[C@@H](NC(=O)[C@H](Cc1ccccc1)NC(=O)OC(C)(C)C)C(=O)N[C@@H](Cc1ccccc1)C(=O)N[C@H](CC(C)C)C(=O)N[C@H](C(=O)O)C(C)C | 260 |  |
| CC(C)C[C@@H](NC(=O)[C@H](Cc1ccccc1)NC(=O)[C@@H](CC(C)C)NC(=O)[C@H](Cc1ccccc1)NC(=O)OC(C)(C)C)C(=O)N[C@@H](Cc1c[nH]c2ccccc12)C(=O)O | 150 |  |
| CC(C)C[C@@H](NC(=O)[C@H](CC(=O)OC(C)(C)C)NC(=O)[C@@H](CC(C)C)NC(=O)[C@H](Cc1ccccc1)NC(=O)OC(C)(C)C)C(=O)N[C@@H](Cc1ccccc1)C(=O)O | 510 |  |
| CC(C)C[C@@H](NC(=O)[C@H](Cc1ccccc1)NC(=O)[C@@H](CC(C)C)NC(=O)[C@H](Cc1ccccc1)NC(=O)OC(C)(C)C)C(=O)N[C@@H](Cc1cn(C(=O)OC(C)(C)C)c2ccccc12)C(=O)O | 120 |  |
| CC(C)C[C@@H](NC(=O)[C@H](Cc1ccccc1)NC(=O)[C@@H](CC(C)C)NC(=O)[C@H](Cc1ccccc1)NC(=O)OC(C)(C)C)C(=O)N[C@@H](Cc1ccccc1)C(=O)O (Boc-F[dL]F[dL]F-OH) |  | inhibition [2]: inactive; Activity [3]: inactive |
| CC(C)C[C@@H](NC(=O)[C@H](Cc1ccccc1)NC(=O)[C@@H](CC(C)C)NC(=O)[C@H](CCCCN)NC(=O)OC(C)(C)C)C(=O)N[C@@H](Cc1ccccc1)C(=O)O | 730 |  |
| CC(C)C[C@@H](NC(=O)[C@H](Cc1ccccc1)NC(=O)[C@@H](CC(C)C)NC(=O)[C@H](CCCCNC(=O)C1CCCCC1)NC(=O)OC(C)(C)C)C(=O)N[C@@H](Cc1ccccc1)C(=O)O | 150 |  |
| CC(C)C[C@@H](NC(=O)[C@H](Cc1ccccc1)NC(=O)[C@@H](CC(C)C)NC(=O)[C@H](Cc1ccccc1)NC(=O)OC(C)(C)C)C(=O)N[C@@H](C)C(=O)O | 350 | Activity [3]: inactive |
| CC(C)C[C@@H](NC(=O)[C@H](Cc1ccccc1)NC(=O)[C@@H](CC(C)C)NC(=O)[C@H](Cc1ccc(C(=O)c2ccccc2)cc1)NC(=O)OC(C)(C)C)C(=O)N[C@@H](Cc1ccccc1)C(=O)O | 16 | inhibition [4]: inactive; IC50 (fMet-Leu-Phe receptor [5]): 420 nM |
| CC(C)C[C@@H](NC(=O)[C@H](Cc1ccccc1)NC(=O)[C@H](C)NC(=O)[C@H](Cc1ccccc1)NC(=O)OC(C)(C)C)C(=O)N[C@@H](Cc1ccccc1)C(=O)O | 260 | Activity [3]: inactive |
| CSCC[C@H](NC(=O)[C@@H](CC(C)C)NC(=O)[C@H](Cc1ccccc1)NC(=O)OC(C)(C)C)C(=O)N[C@H](CC(C)C)C(=O)N[C@@H](Cc1ccccc1)C(=O)O | 130 |  |
| CC(C)C[C@@H](NC(=O)[C@H](Cc1ccccc1)NC(=O)[C@@H](CC(C)C)NC(=O)[C@H](Cc1cn(C=O)c2ccccc12)NC(=O)OC(C)(C)C)C(=O)N[C@@H](Cc1ccccc1)C(=O)O | 90 |  |
| CC(C)C[C@@H](NC(=O)[C@H](Cc1ccccc1)NC(=O)[C@@H](CC(C)C)NC(=O)[C@H](CCCCNC(=O)c1ccccc1)NC(=O)OC(C)(C)C)C(=O)N[C@@H](Cc1ccccc1)C(=O)O | 140 |  |
| CC(C)C[C@@H](NC(=O)[C@H](C)NC(=O)OC(C)(C)C)C(=O)N[C@@H](Cc1ccccc1)C(=O)N[C@H](CC(C)C)C(=O)N[C@@H](Cc1ccccc1)C(=O)O | 170 | Activity [3]: inactive |
| CC(C)C[C@@H](NC(=O)[C@H](Cc1ccccc1)NC(=O)[C@@H](CC(C)C)NC(=O)[C@H](Cc1ccc(Cl)cc1)NC(=O)OC(C)(C)C)C(=O)N[C@@H](Cc1ccccc1)C(=O)O | 75 |  |
| CC(C)C[C@@H](NC(=O)[C@H](Cc1ccc(C(=O)c2ccccc2)cc1)NC(=O)[C@@H](CC(C)C)NC(=O)[C@H](Cc1ccccc1)NC(=O)OC(C)(C)C)C(=O)N[C@@H](Cc1ccccc1)C(=O)O | 150 |  |
| CC(C)C[C@@H](NC(=O)[C@H](CC1=CCCCC1)NC(=O)[C@@H](CC(C)C)NC(=O)[C@H](Cc1ccc(C(=O)c2ccccc2)cc1)NC(=O)OC(C)(C)C)C(=O)N[C@@H](CC1CCCCC1)C(=O)O | 6.9 |  |

| SMILES | Kd (fMet-Leu-Phe receptor [1]) [nM] | also measured |
| --- | --- | --- |
| CC(C)C[C@@H](NC(=O)[C@H](CCCCNC(=O)OC(C)(C)C)NC(=O)[C@@H](CC(C)C)NC(=O)[C@H](Cc1ccccc1)NC(=O)OC(C)(C)C)C(=O)N[C@@H](Cc1ccccc1)C(=O)O | > 1000 |  |
| CC(C)C[C@@H](NC(=O)[C@H](Cc1ccccc1)NC(=O)[C@@H](CC(C)C)NC(=O)[C@H](Cc1cn(C(=O)OC(C)(C)C)c2ccccc12)NC(=O)OC(C)(C)C)C(=O)N[C@@H](Cc1ccccc1)C(=O)O | 69 |  |
| CC(C)C[C@@H](NC(=O)[C@H](CC1=CCCCC1)NC(=O)[C@@H](CC(C)C)NC(=O)[C@H](Cc1ccc(C(=O)c2ccccc2)cc1)NC(=O)OC(C)(C)C)C(=O)N[C@@H](Cc1ccccc1)C(=O)O | 2.1 | inhibition [4]: inactive; IC50 (fMet-Leu-Phe receptor [5]): 140 nM |
| CC(C)C[C@@H](NC(=O)[C@H](Cc1ccccc1)NC(=O)[C@@H](CC(C)C)NC(=O)[C@H](COC(C)(C)C)NC(=O)OC(C)(C)C)C(=O)N[C@@H](Cc1ccccc1)C(=O)O | 100 |  |
| CC(C)C[C@H](NC(=O)OC(C)(C)C)C(=O)N[C@H](CC(C)C)C(=O)N[C@@H](Cc1ccccc1)C(=O)N[C@H](CC(C)C)C(=O)N[C@@H](Cc1ccccc1)C(=O)O | 200 |  |
| CC(C)C[C@@H](NC(=O)[C@H](Cc1ccccc1)NC(=O)OC(C)(C)C)C(=O)N[C@@H](Cc1ccccc1)C(=O)N[C@@H](C)C(=O)N[C@@H](Cc1ccccc1)C(=O)O | 420 | Activity [3]: inactive |
| CC(C)C[C@@H](NC(=O)[C@H](Cc1ccccc1)NC(=O)[C@@H](CC(C)C)NC(=O)[C@H](Cc1c[nH]c2ccccc12)NC(=O)OC(C)(C)C)C(=O)N[C@@H](Cc1ccccc1)C(=O)O | 190 |  |
| CC(C)C[C@@H](NC(=O)[C@H](CC1CCCCC1)NC(=O)[C@@H](CC(C)C)NC(=O)[C@H](Cc1ccccc1)NC(=O)OC(C)(C)C)C(=O)N[C@@H](Cc1ccccc1)C(=O)O | 25 |  |
| CC(C)C[C@@H](NC(=O)[C@H](Cc1ccccc1)NC(=O)[C@@H](CC(C)C)NC(=O)[C@H](CC1CCCCC1)NC(=O)OC(C)(C)C)C(=O)N[C@@H](Cc1ccccc1)C(=O)O | 66 |  |
| CC(C)C[C@H](NC(=O)[C@@H](CC(C)C)NC(=O)[C@H](Cc1ccccc1)NC(=O)[C@@H](CC(C)C)NC(=O)[C@H](Cc1ccccc1)NC(=O)OC(C)(C)C)C(=O)O | 130 |  |
| CC(C)C[C@H](NC(=O)[C@@H](CC(C)C)NC(=O)[C@H](Cc1ccccc1)NC(=O)OC(C)(C)C)C(=O)N[C@H](CC(C)C)C(=O)N[C@@H](Cc1ccccc1)C(=O)O | 200 |  |
| CC(C)C[C@@H](NC(=O)[C@H](C)NC(=O)[C@@H](CC(C)C)NC(=O)[C@H](Cc1ccccc1)NC(=O)OC(C)(C)C)C(=O)N[C@@H](Cc1ccccc1)C(=O)O | 280 | Activity [3]: inactive |
| CC(C)C[C@@H](NC(=O)[C@H](Cc1ccccc1)NC(=O)[C@@H](CC(C)C)NC(=O)[C@@H](NC(=O)OC(C)(C)C)[C@@H](C)OC(C)(C)C)C(=O)N[C@@H](Cc1ccccc1)C(=O)O | 140 |  |
| CC(C)C[C@@H](NC(=O)[C@H](Cc1ccccc1)NC(=O)[C@@H](CC(C)C)NC(=O)[C@H](Cc1ccccc1)NC(=O)OC(C)(C)C)C(=O)N[C@@H](COC(C)(C)C)C(=O)O | 180 |  |
| CC(C)C[C@@H](NC(=O)[C@H](Cc1ccccc1)NC(=O)[C@@H](CC(C)C)NC(=O)[C@H](Cc1ccccc1)NC(=O)OC(C)(C)C)C(=O)N[C@@H](CC1CCCCC1)C(=O)O | 77 |  |
| CC(C)C[C@@H](NC(=O)[C@H](Cc1ccccc1)NC(=O)[C@@H](CC(C)C)NC(=O)[C@H](Cc1ccccc1)NC(=O)OC(C)(C)C)C(=O)N[C@@H](Cc1ccc(C(=O)c2ccccc2)cc1)C(=O)O | 150 |  |
| CC(C)C[C@@H](NC(=O)[C@H](Cc1ccccc1)NC(=O)OC(C)(C)C)C(=O)N[C@H](C(=O)N[C@H](CC(C)C)C(=O)N[C@@H](Cc1ccccc1)C(=O)O)C(C)C | > 1000 |  |
| CC(C)C[C@@H](NC(=O)[C@H](Cc1ccccc1)NC(=O)OC(C)(C)C)C(=O)N[C@@H](Cc1ccccc1)C(=O)N[C@H](CC(C)C)C(=O)N[C@H](C(=O)O)[C@@H](C)OC(C)(C)C | 130 |  |
| CC(C)C[C@@H](NC(=O)[C@H](Cc1ccccc1)NC(=O)[C@@H](CC(C)C)NC(=O)[C@H](Cc1ccc(OC(C)(C)C)cc1)NC(=O)OC(C)(C)C)C(=O)N[C@@H](Cc1ccccc1)C(=O)O | 62 |  |
